Measurements: patent US8969388B1, “Substituted pyrazolone compounds and methods of use” (Calitor Sciences, LLC, priority 2012, dated 2015)
Read-outs that look alike come from different tables or passages of the source. One block for each compound: values may come before it.

Tests used:
[1] = target: T1, KDR (h) (Homo sapiens, UniProt P35968); test: KINOMEscan competition binding assay, KDR (h)
T1 construct: host or cells: E. coli BL21-derived host (T7 phage) or HEK-293
Protocol: (§1) Alternatively, the kinase activities of the compounds can be measured using KINOMEscan™, which is based on a competition binding assay that quantitatively measures the ability of a compound to compete with an immobilized, active-site directed ligand. The assay was performed by combining three components: DNA-tagged kinase; immobilized ligand; and a test compound. The ability of the test compound to compete with the immobilized ligand was measured via quantitative PCR of the DNA tag.
(§2) For most assays, kinase-tagged T7 phage strains were prepared in an E. coli host derived from the BL21 strain. E. coli were grown to log-phase and infected with T7 phage and incubated with shaking at 32° C. until lysis. The lysates were centrifuged and filtered to remove cell debris. The remaining kinases were produced in HEK-293 cells and subsequently tagged with DNA for qPCR detection. Streptavidin-coated magnetic beads were treated with biotinylated small molecule ligands for 30 minutes at room temperature to generate affinity resins for kinase assays. The liganded beads were blocked with excess biotin and washed with blocking buffer (SEABLOCK™ (Pierce), 1% BSA, 0.05% TWEEN®20, 1 mM DTT) to remove unbound ligand and to reduce nonspecific binding. Binding reactions were assembled by combining kinases, liganded affinity beads, and test compounds in 1× binding buffer (20% SEABLOCK™, 0.17×PBS, 0.05% TWEEN®20, 6 mM DTT). All reactions were performed in polystyrene 96-well plates in a final volume of 0.135 mL. The assay plates were incubated at room temperature with shaking for 1 hour and the affinity beads were washed with wash buffer (1×PBS, 0.05% TWEEN®20). The beads were then re-suspended in elution buffer (1×PBS, 0.05% TWEEN®20, 0.5 μM non-biotinylated affinity ligand) and incubated at room temperature with shaking for 30 minutes. The kinase concentration in the eluates was measured by qPCR.
(§3) The kinase assays described herein were performed using KINOMEscan™ Profiling Service at DiscoveRx Corporation, 42501 Albrae St. Fremont, Calif.

[2] = target: T2, c-Met (h) (Homo sapiens, UniProt P08581); test: KINOMEscan competition binding assay, c-Met (h)
T2 construct: host or cells: E. coli BL21-derived host (T7 phage) or HEK-293
Protocol: as §1, §2, §3

[3] = system: U87MG glioblastoma cells; test: U87MG tumor xenograft model, tumor growth inhibition; format: in vivo, athymic nude mice (BALB/cA nu/nu); conditions: mice, oral gavage
Protocol: The efficacy of compounds disclosed herein was evaluated in a standard murine model of tumorigenesis. Human tumor cells (U87MG glioblastoma cells from ATCC) were expended in culture, harvested, and injected subcutaneously onto the rear flank of 6-7 week old female athymic nude mice (BALB/cA nu/nu, Hunan SLAC Laboratory Animal, Co.) (n=6-10 for vehicle group and for each dosing group). When tumors reached a volume of 100-250 mm^3, animals were randomly divided into vehicle control (for example, 5% DMSO+70% Captisol® (30%), 7% HCl (pH1), 18% Captisol® (30%); or 7% DMSO, 7% HCl (pH1), 70% Captisol® (30%), 16% Captisol® (30%), or the like) and compound groups. Subsequent administration of compound by oral gavage begins anywhere from day 0 to day 15 post tumor cell challenge and generally continues with once a day for the duration of the experiment.
Progression of tumor growth is assessed by tumor volumes and recorded as a function of time. The long (L) and short (W) axes of the subcutaneous tumors were measured with calipers twice weekly, and the tumor volume (TV) calculated as (L×W^2)/2). TGI was calculated from the difference between the median tumor volumes of vehicle-treated and drug-treated mice, expressed as a percentage of the median tumor volume of the vehicle-treated control group, by the following relation:
[formula] Initial statistical analysis is done by repeated measures analysis of variance (RMANOVA), followed by Scheffe psot hoc testing for multiple comparisons. Vehicle alone (5% DMSO+70% Captisol® (30%), 7% HCl (pH1), 18% Captisol® (30%); or 7% DMSO, 7% HCl (pH1), 70% Captisol® (30%), 16% Captisol® (30%), or the like) is the negative control.

[4] = Pharmacokinetics after intravenous and oral administration in rats; format: in vivo; conditions: for F: oral bioavailability, oral dose not given; for AUC(0-t) / half-life / Vd: rat, plasma; for clearance (CL) after iv dosing / AUC(0-t) / half-life / Vd: iv dosing; for Vd: read-out: Vss
Protocol: The compounds disclosed herein are assessed in pharmacokinetic studies in mice, rats, dogs or monkeys. The compounds are administered as a water solution, 2% HPMC+1% TWEEN®80 in water solution, 5% DMSO+5% solutol in saline, 4% MC suspension or capsule. For the intravenous administration, the animals are generally given at 1 or 2 mg/kg dose. For the oral (p.o.) dosing, mice and rats are generally given 5 or 10 mg/kg dose, and dogs and monkeys are generally given 10 mg/kg dose. The blood samples (0.3 mL) are drawn at 0.25, 0.5, 1.0, 2.0, 3.0, 4.0, 6.0, 8.0, 12 and 24 h time points or 0.083, 0.25, 0.5, 1.0, 2.0, 4.0, 6.0, 8.0 and 24 h time points and centrifuged at 3,000 or 4000 rpm for 2 to 10 min. The plasma solutions are collected, stored at −20° C. or −70° C. until analyzed by LC/MS/MS as described above.

T1 sequence (P35968 20-1356): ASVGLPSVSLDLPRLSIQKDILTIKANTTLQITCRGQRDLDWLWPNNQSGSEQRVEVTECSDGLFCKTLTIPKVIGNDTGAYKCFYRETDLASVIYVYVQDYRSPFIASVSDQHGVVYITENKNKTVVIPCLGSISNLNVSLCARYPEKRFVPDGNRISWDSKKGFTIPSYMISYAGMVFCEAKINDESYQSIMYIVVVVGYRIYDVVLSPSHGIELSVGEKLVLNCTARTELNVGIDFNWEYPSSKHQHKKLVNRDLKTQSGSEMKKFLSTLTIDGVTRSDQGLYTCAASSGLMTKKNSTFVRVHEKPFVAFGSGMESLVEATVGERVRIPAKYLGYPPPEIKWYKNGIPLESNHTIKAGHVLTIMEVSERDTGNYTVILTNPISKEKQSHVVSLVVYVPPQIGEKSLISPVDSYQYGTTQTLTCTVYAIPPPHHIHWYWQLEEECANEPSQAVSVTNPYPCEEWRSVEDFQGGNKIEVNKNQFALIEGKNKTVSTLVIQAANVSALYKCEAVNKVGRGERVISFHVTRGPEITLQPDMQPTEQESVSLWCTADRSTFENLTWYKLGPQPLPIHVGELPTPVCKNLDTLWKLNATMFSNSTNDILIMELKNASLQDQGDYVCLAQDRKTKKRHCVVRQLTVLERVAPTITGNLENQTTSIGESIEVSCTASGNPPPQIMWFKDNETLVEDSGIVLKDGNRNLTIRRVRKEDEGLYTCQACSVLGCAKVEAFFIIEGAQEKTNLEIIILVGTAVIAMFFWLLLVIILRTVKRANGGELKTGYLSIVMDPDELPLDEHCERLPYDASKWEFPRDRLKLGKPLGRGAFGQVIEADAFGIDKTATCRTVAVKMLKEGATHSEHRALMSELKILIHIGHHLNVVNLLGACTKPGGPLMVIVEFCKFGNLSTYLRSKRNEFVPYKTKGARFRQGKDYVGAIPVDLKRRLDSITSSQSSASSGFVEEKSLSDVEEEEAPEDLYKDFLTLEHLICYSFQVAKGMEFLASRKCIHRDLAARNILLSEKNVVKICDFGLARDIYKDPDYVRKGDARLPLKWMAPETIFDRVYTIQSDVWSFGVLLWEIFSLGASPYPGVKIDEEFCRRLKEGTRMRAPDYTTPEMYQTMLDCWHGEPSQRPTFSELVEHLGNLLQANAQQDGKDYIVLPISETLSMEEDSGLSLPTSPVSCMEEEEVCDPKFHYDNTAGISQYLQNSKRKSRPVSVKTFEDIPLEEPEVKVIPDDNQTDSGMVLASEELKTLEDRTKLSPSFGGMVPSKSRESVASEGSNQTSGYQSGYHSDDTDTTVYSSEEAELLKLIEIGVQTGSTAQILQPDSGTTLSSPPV
T2 sequence (P08581 25-1390): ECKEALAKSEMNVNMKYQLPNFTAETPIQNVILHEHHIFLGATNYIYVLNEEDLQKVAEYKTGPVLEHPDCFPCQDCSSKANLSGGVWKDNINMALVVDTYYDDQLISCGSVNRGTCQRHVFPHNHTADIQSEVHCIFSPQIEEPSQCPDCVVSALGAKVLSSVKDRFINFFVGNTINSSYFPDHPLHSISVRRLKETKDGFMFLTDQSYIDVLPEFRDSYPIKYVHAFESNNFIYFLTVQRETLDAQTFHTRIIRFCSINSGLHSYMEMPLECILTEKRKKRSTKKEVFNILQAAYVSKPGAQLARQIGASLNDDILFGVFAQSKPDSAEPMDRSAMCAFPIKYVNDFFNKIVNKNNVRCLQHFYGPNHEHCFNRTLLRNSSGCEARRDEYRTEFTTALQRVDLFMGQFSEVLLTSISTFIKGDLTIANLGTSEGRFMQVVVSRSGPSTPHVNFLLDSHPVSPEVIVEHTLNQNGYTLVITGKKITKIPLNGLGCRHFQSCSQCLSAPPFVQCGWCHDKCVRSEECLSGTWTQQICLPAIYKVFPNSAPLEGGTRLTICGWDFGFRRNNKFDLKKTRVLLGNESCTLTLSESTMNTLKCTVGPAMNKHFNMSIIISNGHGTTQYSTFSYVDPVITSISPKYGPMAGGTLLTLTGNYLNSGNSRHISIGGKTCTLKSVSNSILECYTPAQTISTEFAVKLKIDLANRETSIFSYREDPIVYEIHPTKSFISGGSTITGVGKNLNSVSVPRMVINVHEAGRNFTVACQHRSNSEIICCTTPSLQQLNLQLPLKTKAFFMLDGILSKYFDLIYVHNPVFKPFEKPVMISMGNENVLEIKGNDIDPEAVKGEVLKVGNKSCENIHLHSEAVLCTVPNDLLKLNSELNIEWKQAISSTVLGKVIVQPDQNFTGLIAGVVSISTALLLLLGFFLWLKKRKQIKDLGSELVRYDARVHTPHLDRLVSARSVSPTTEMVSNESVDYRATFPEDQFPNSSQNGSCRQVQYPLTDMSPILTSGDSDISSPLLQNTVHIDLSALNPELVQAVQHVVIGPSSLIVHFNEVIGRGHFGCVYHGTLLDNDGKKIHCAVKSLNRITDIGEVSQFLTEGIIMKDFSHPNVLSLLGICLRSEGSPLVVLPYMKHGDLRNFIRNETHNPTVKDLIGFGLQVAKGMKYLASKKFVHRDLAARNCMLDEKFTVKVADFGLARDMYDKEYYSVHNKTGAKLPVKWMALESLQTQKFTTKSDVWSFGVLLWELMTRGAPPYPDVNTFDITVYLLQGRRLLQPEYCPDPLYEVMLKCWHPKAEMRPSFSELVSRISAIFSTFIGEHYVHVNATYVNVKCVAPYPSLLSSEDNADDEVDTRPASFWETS

SMILES: CC(=O)Nc1nccc(Oc2ccc(NC(=O)c3c(C)n(C)n(-c4ccccc4)c3=O)cc2F)c1Cl [Ex. 4, N-(4-((2-acetamido-3-chloropyridin-4-yl)oxy)-3-fluorophenyl)-1,5-dimethyl-3-oxo-2-phenyl-2,3-dihydro-1H-pyrazole-4-carboxamide]
Kd [1]: 540 nM
Kd [2]: 24 nM

SMILES: Cc1c(C(=O)Nc2ccc(Oc3ccnc(N)c3)c(F)c2F)c(=O)n(-c2ccccc2)n1C [Ex. 5, N-(4-((2-aminopyridin-4-yl)oxy)-2,3-difluorophenyl)-1,5-dimethyl-3-oxo-2-phenyl-2,3-dihydro-1H-pyrazole-4-carboxamide]
Kd [1]: 3300 nM
Kd [2]: 37 nM
clearance (CL) after iv dosing ([4]; 2 mg/kg): 31.2 mL/min/kg
F ([4]; iv dose 2 mg/kg): 19.1%
AUC(0-t) ([4]; 2 mg/kg): 1080 ng·h/mL
half-life ([4]; 2 mg/kg): 0.31 h
Vd ([4]; 2 mg/kg): 0.53 L/kg

SMILES: CC(=O)Nc1cc(Oc2cc(F)c(NC(=O)c3c(C)n(C)n(-c4ccccc4)c3=O)cc2F)ccn1 [Ex. 9, N-(4-((2-acetamidopyridin-4-yl)oxy)-2,5-difluorophenyl)-1,5-dimethyl-3-oxo-2-phenyl-2,3-dihydro-1H-pyrazole-4-carboxamide]
Kd [1]: 160 nM
Kd [2]: 1.8 nM
clearance (CL) after iv dosing ([4]; 1 mg/kg): 0.67 mL/min/kg
F ([4]; iv dose 1 mg/kg): 61.2%
AUC(0-t) ([4]; 1 mg/kg): 23300 ng·h/mL
half-life ([4]; 1 mg/kg): 4.76 h
Vd ([4]; 1 mg/kg): 0.24 L/kg

SMILES: Cc1c(C(=O)Nc2cc(F)c(Oc3ccnc(N)c3Cl)cc2F)c(=O)n(-c2ccccc2)n1C [Ex. 11, N-(4-((2-amino-3-chloropyridin-4-yl)oxy)-2,5-difluorophenyl)-1,5-dimethyl-3-oxo-2-phenyl-2,3-dihydro-1H-pyrazole-4-carboxamide]
Kd [1]: 340 nM
Kd [2]: 1.4 nM
clearance (CL) after iv dosing ([4]; 2 mg/kg): 9.5 mL/min/kg
F ([4]; iv dose 2 mg/kg): 88.0%
AUC(0-t) ([4]; 2 mg/kg): 3340 ng·h/mL
half-life ([4]; 2 mg/kg): 2.9 h
Vd ([4]; 2 mg/kg): 1.17 L/kg

SMILES: [2H]c1cc(Oc2ccnc(N)c2)ccc1NC(=O)c1c(C)n(C)n(-c2ccccc2)c1=O [Ex. 15, N-(4-((2-aminopyridin-4-yl)oxy)-2-deuteriumphenyl)-1,5-dimethyl-3-oxo-2-phenyl-2,3-dihydro-1H-pyrazole-4-carboxamide]
Kd [1]: 3800 nM
Kd [2]: 180 nM

SMILES: CC(=O)Nc1nccc(Oc2ccc(NC(=O)c3c(C)n(C)n(-c4ccccc4)c3=O)nc2)c1Cl [Ex. 20, N-(5-((2-acetamido-3-chloropyridin-4-yl)oxy)pyridin-2-yl)-1,5-dimethyl-3-oxo-2-phenyl-2,3-dihydro-1H-pyrazole-4-carboxamide]
Kd [1]: 1600 nM
Kd [2]: 620 nM

More lines, main results first:

Kd [1]: 43 nM
Kd [2]: 13 nM
clearance (CL) after iv dosing ([4]; 1 mg/kg): 23.2 mL/min/kg
F ([4]; iv dose 1 mg/kg): 98.5%
AUC(0-t) ([4]; 1 mg/kg): 685 ng·h/mL
half-life ([4]; 1 mg/kg): 4.1 h
Vd ([4]; 1 mg/kg): 1.75 L/kg
SMILES: Cc1c(C(=O)Nc2ccc(Oc3ccnc(N)c3Cl)cc2)c(=O)n(-c2ccccc2)n1C [Ex. 2, N-(4-((2-amino-3-chloropyridin-4-yl)oxy)phenyl)-1,5-dimethyl-3-oxo-2-phenyl-2,3-dihydro-1H-pyrazole-4-carboxamide]
TGI % (on last day of dosing) ([3]; 6 mg/kg, 14 days): 29%
TGI % (on last day of dosing) ([3]; 20 mg/kg, 14 days): 69%
TGI % (on last day of dosing) ([3]; 60 mg/kg, 14 days): 82%

clearance (CL) after iv dosing ([4]; 1 mg/kg): 1.83 mL/min/kg
F ([4]; iv dose 1 mg/kg): 83.2%
AUC(0-t) ([4]; 1 mg/kg): 9640 ng·h/mL
half-life ([4]; 1 mg/kg): 4.6 h
Vd ([4]; 1 mg/kg): 0.53 L/kg
SMILES: Cc1c(C(=O)Nc2cc(F)c(Oc3ccnc(NC(=O)N4CCOCC4)c3)cc2F)c(=O)n(-c2ccccc2)n1C [Ex. 10, N-(4-(4-(1,5-dimethyl-3-oxo-2-phenyl-2,3-dihydro-1H-pyrazole-4-carboxamido)-2,5-difluorophenoxy)pyridin-2-yl)morpholine-4-carboxamide]

Kd [1]: 19000 nM
Kd [2]: 56 nM
clearance (CL) after iv dosing ([4]; 2 mg/kg): 15.7 mL/min/kg
F ([4]; iv dose 2 mg/kg): 125.0%
AUC(0-t) ([4]; 2 mg/kg): 2120 ng·h/mL
half-life ([4]; 2 mg/kg): 1.56 h
Vd ([4]; 2 mg/kg): 0.69 L/kg
SMILES: Cc1c(C(=O)Nc2ccc(Oc3ccnc(N)c3)cc2Cl)c(=O)n(-c2ccccc2)n1C [Ex. 12, N-(4-((2-aminopyridin-4-yl)oxy)-2-chlorophenyl)-1,5-dimethyl-3-oxo-2-phenyl-2,3-dihydro-1H-pyrazole-4-carboxamide]

Kd [1]: 570 nM
Kd [2]: 18 nM
SMILES: CC(=O)Nc1cc(Oc2ccc(NC(=O)c3c(C)n(C)n(-c4ccccc4)c3=O)c(Cl)c2)ccn1 [Ex. 13, N-(4-((2-acetamidopyridin-4-yl)oxy)-2-chlorophenyl)-1,5-dimethyl-3-oxo-2-phenyl-2,3-dihydro-1H-pyrazole-4-carboxamide]

Kd [1]: 1800 nM
Kd [2]: 200 nM
SMILES: Cc1c(C(=O)Nc2ccc(Oc3ccnc(N)c3)cn2)c(=O)n(-c2ccccc2)n1C [Ex. 16, N-(5-((2-aminopyridin-4-yl)oxy)pyridin-2-yl)-1,5-dimethyl-3-oxo-2-phenyl-2,3-dihydro-1H-pyrazole-4-carboxamide]

Kd [1]: 26 nM
Kd [2]: 16 nM
SMILES: Cc1c(C(=O)Nc2ccc(Oc3ccnc(N)c3Cl)cn2)c(=O)n(-c2ccccc2)n1C [Ex. 19, N-(5-((2-amino-3-chloropyridin-4-yl)oxy)pyridin-2-yl)-1,5-dimethyl-3-oxo-2-phenyl-2,3-dihydro-1H-pyrazole-4-carboxamide]
TGI % (on last day of dosing) ([3]; 6 mg/kg, 12 days): 22%
TGI % (on last day of dosing) ([3]; 20 mg/kg, 12 days): 49%
TGI % (on last day of dosing) ([3]; 60 mg/kg, 12 days): 103%

Kd [1]: 1100 nM
Kd [2]: 120 nM
SMILES: CC(=O)Nc1nccc(Oc2ccc(NC(=O)c3c(C)n(C)n(-c4ccccc4)c3=O)cc2)c1Cl [Ex. 21, N-(4-((2-acetamido-3-chloropyridin-4-yl)oxy)phenyl)-1,5-dimethyl-3-oxo-2-phenyl-2,3-dihydro-1H-pyrazole-4-carboxamide]

Kd [1]: 13 nM
Kd [2]: 5.1 nM
clearance (CL) after iv dosing ([4]; 2 mg/kg): 0.5 mL/min/kg
F ([4]; iv dose 2 mg/kg): 69.7%
AUC(0-t) ([4]; 2 mg/kg): 56600 ng·h/mL
half-life ([4]; 2 mg/kg): 4.4 h
Vd ([4]; 2 mg/kg): 0.18 L/kg
SMILES: CC(=O)Nc1cc(Oc2ccc(NC(=O)c3c(C)n(C)n(-c4ccccc4)c3=O)cc2F)ccn1 [Ex. 23, N-(4-((2-acetamidopyridin-4-yl)oxy)-3-fluorophenyl)-1,5-dimethyl-3-oxo-2-phenyl-2,3-dihydro-1H-pyrazole-4-carboxamide]
